Experimental data published in patent publication US9840510B1, “Pyrazolo[1,5-a]pyrimidinyl carboxamide compounds and their use in the treatment of medical disorders” (Lysosomal Therapeutics Inc., priority 2016, dated 2017).
≈ marks a conversion by molar mass, not a printed value.

Test: Compound solubility in water
Format: physicochemical

Point of comparison: `COc1cccc(-c2cc(C)n3ncc(C(=O)N[C@@H](C)C(F)(F)F)c3n2)c1` [III-91], solubility 1.7 µg/mL (≈ 4.49 µM). Against it:
- Cc1cc(C)n2ncc(C(=O)NC(C3CC3)C(F)(F)F)c2n1 (centres unmarked) [III-9] — 11-fold higher, 18 µg/mL (≈ 57.6 µM)
- Cc1cc(-c2ccnnc2)nc2c(C(=O)NC(C3CC3)C(F)(F)F)cnn12 (centres unmarked) [III-325] — 8.6-fold higher, 14.6 µg/mL (≈ 38.8 µM)
- Cc1cc(C)n2nc(Cl)c(C(=O)N[C@@H](C)C3CC3)c2n1 [III-34] — 6.1-fold higher, 10.3 µg/mL (≈ 35.2 µM)
- COCc1cc(-c2cccc(F)c2)nc2c(C(=O)NC(C)(C)C3CC3)cnn12 [III-74] — 2.1-fold lower, 0.8 µg/mL (≈ 2.09 µM)
- COc1cc(F)ccc1-c1cc(C)n2ncc(C(=O)NC(C)C(F)(F)F)c2n1 (centres unmarked) [III-150] — 2.4-fold lower, 0.7 µg/mL (≈ 1.77 µM)
- Cc1cc(-c2ccc3c(c2)OCO3)nc2c(C(=O)NC(C)C(F)(F)F)cnn12 (centres unmarked) [III-289] — 2.1-fold lower, 0.8 µg/mL (≈ 2.04 µM)
- Cc1cc(-c2cnccc2C(F)(F)F)nc2c(C(=O)N[C@@H](C3CC3)C(F)(F)F)cnn12 [III-354] — 7.9-fold higher, 13.5 µg/mL (≈ 30.4 µM)
- Cc1cc(-c2cccc3ncoc23)nc2c(C(=O)N[C@@H](C)C3CC3)cnn12 [III-217] — 1.9-fold higher, 3.2 µg/mL (≈ 8.85 µM)
- Cc1cc(-c2ccc(C#N)o2)nc2c(C(=O)NC(C3CC3)C(F)(F)F)cnn12 (centres unmarked) [III-185] — 3.7-fold higher, 6.3 µg/mL (≈ 16.2 µM)
- Cc1cc(-c2cncc(Cl)c2)nc2c(C(=O)NC(C)C(F)(F)F)cnn12 (centres unmarked) [III-200] — 1.7-fold lower, 1 µg/mL (≈ 2.61 µM)
- Cc1cc(-c2sccc2C#N)nc2c(C(=O)N[C@H](C)C3CC3)cnn12 [III-302] — 3.4-fold lower, 0.5 µg/mL (≈ 1.42 µM)
- Cc1cc(-c2ccc(Cl)nc2)nc2c(C(=O)NC(C3CC3)C(F)(F)F)cnn12 (centres unmarked) [III-116] — 1.7-fold lower, 1 µg/mL (≈ 2.44 µM)
- Cc1cc(-c2cccc(F)c2)nc2c(C(=O)N[C@H](C)C3CC3)cnn12 [III-92] — 8.5-fold lower, 0.2 µg/mL (≈ 0.591 µM)
- CNc1cc(C)n2ncc(C(=O)N[C@@H](C)C3CC3)c2n1 [III-6] — 14-fold higher, 23.8 µg/mL (≈ 87.1 µM)
- Cc1cc(-c2cccnc2F)nc2c(C(=O)N[C@H](C3CC3)C(F)(F)F)cnn12 [III-114] — within 1.5-fold, 2.1 µg/mL (≈ 5.34 µM)
- Cc1cc(-c2cc(C)n3ncc(C(=O)N[C@@H](C4CC4)C(F)(F)F)c3n2)sn1 [III-216] — 1.9-fold lower, 0.9 µg/mL (≈ 2.28 µM)
- CCc1cc(-c2ccccn2)nc2c(C(=O)NC(C)C3CC3)cnn12 (centres unmarked) [III-49] — within 1.5-fold, 2.5 µg/mL (≈ 7.45 µM)
- Cc1cc(-c2cccnc2)n2ncc(C(=O)NC(C)(C)C3CC3)c2n1 [III-19] — 3.1-fold higher, 5.3 µg/mL (≈ 15.8 µM)
- Cc1cc(-c2ccc(F)cc2C#N)nc2c(C(=O)N[C@@H](C)C3CC3)cnn12 [III-152] — 3.4-fold lower, 0.5 µg/mL (≈ 1.38 µM)
- Cc1cc(-c2cccc(C#N)c2)nc2c(C(=O)NC(C3CC3)C(F)(F)F)cnn12 (centres unmarked) [III-72] — 17-fold lower, 0.1 µg/mL (≈ 0.25 µM)
- Cc1cc(N2CCN(C(C)C)C2=O)nc2c(C(=O)NC(C)(C)C(F)(F)F)cnn12 [III-231] — 1.8-fold higher, 3 µg/mL (≈ 7.27 µM)
- Cc1cc(-c2ccc(C(F)(F)F)nc2)nc2c(C(=O)NC(C)C(F)(F)F)cnn12 (centres unmarked) [III-288] — within 1.5-fold, 1.4 µg/mL (≈ 3.35 µM)
- Cc1cc(-c2cccc(Oc3ncccn3)c2)nc2c(C(=O)NC(C3CC3)C(F)(F)F)cnn12 (centres unmarked) [III-103] — 2.1-fold lower, 0.8 µg/mL (≈ 1.71 µM)
- Cc1cc(-c2cncc(C#N)c2)nc2c(C(=O)N[C@H](C3CC3)C(F)(F)F)cnn12 [III-363] — the same, 1.7 µg/mL (≈ 4.25 µM)
- CCc1cc(-c2ccccn2)nc2c(C(=O)NC(C)(C)C(F)(F)F)cnn12 [III-407] — 19-fold lower, 0.09 µg/mL (≈ 0.238 µM)
- Cc1cc(N2CCC(F)(F)CC2)nc2c(C(=O)NC(C)C(F)(F)F)cnn12 (centres unmarked) [III-181] — 2.6-fold higher, 4.5 µg/mL (≈ 11.5 µM)
- Cc1cc(N2CCN(C(C)C)C2=O)nc2c(C(=O)NC(C)(C)C3CC3)cnn12 [III-230] — 1.5-fold higher, 2.6 µg/mL (≈ 6.76 µM)
- Cc1cc(-c2cccnc2)nc2c(C(=O)NC(C)C(F)(F)F)cnn12 (centres unmarked) [III-43] — 7.1-fold higher, 12.1 µg/mL (≈ 34.6 µM)
- Cc1cc(-c2ccc(F)cc2)nc2c(C(=O)NC(C3CC3)C(F)(F)F)cnn12 (centres unmarked) [III-163] — 4.2-fold lower, 0.4 µg/mL (≈ 1.02 µM)
- Cc1cc(-c2cccc(Cl)c2)nc2c(C(=O)NC(C)(C)C(F)(F)F)cnn12 [III-406] — 2.1-fold lower, 0.8 µg/mL (≈ 2.02 µM)
- COc1c(C#N)cccc1-c1cc(C)n2ncc(C(=O)NC(C3CC3)C(F)(F)F)c2n1 (centres unmarked) [III-141] — 1.5-fold lower, 1.1 µg/mL (≈ 2.56 µM)
- Cc1ccc(-c2cc(C)n3ncc(C(=O)N[C@H](C4CC4)C(F)(F)F)c3n2)cn1 [III-279] — within 1.5-fold, 1.5 µg/mL (≈ 3.85 µM)
- COc1cc(F)ccc1-c1cc(C)n2ncc(C(=O)NC(C3CC3)C(F)(F)F)c2n1 (centres unmarked) [III-149] — 1.5-fold lower, 1.1 µg/mL (≈ 2.6 µM)
- Cc1cc(-c2ccc3ocnc3c2)nc2c(C(=O)N[C@@H](C)C(F)(F)F)cnn12 [III-168] — 5.7-fold lower, 0.3 µg/mL (≈ 0.771 µM)
- Cc1cc(Cl)nc2c(C(=O)NC(C3CC3)C(F)(F)F)cnn12 (centres unmarked) [III-45] — 6-fold higher, 10.2 µg/mL (≈ 30.7 µM)
- C#CC(NC(=O)c1cnn2c(C)cc(-c3cccc(OC)c3)nc12)C(F)(F)F (centres unmarked) [III-96] — within 1.5-fold, 2 µg/mL (≈ 5.15 µM)
- Cc1cc(-c2ccc(F)cc2)nc2c(C(=O)N[C@@H](C)C3CC3)cnn12 [III-7] — within 1.5-fold, 1.6 µg/mL (≈ 4.73 µM)
- Cc1cc(-c2cc(C)n3ncc(C(=O)N[C@@H](C)C4CC4)c3n2)sn1 [III-346] — 11-fold higher, 18.8 µg/mL (≈ 55.1 µM)
- C#CC(C)(C)NC(=O)c1cnn2c(C)cc(-c3cccc(OC4CC4)c3)nc12 [III-82] — within 1.5-fold, 1.5 µg/mL (≈ 4.01 µM)
- Cc1cc(N2CCCN(C(C)C)C2=O)nc2c(C(=O)NC(C3CC3)C(F)(F)F)cnn12 (centres unmarked) [III-257] — 6.8-fold higher, 11.6 µg/mL (≈ 26.5 µM)
- Cc1cnc(F)c(-c2cc(C)n3ncc(C(=O)N[C@H](C4CC4)C(F)(F)F)c3n2)c1 [III-374] — 1.5-fold lower, 1.1 µg/mL (≈ 2.7 µM)
- Cc1cc(-c2cccc(C#N)c2)nc2c(C(=O)NC(C)(C)C3CC3)cnn12 [III-71] — 3.4-fold lower, 0.5 µg/mL (≈ 1.39 µM)
- Cc1cc(C#N)c(-c2cc(C)n3ncc(C(=O)NC(C4CC4)C(F)(F)F)c3n2)o1 (centres unmarked) [III-245] — 210-fold lower, 0.008 µg/mL (≈ 0.0198 µM)
- Cc1cc(-c2cc(F)c3c(c2)OCO3)nc2c(C(=O)NC(C)C(F)(F)F)cnn12 (centres unmarked) [III-294] — 2.8-fold lower, 0.6 µg/mL (≈ 1.46 µM)
- Cc1cc(-c2ccc(F)c(C#N)c2)nc2c(C(=O)N[C@@H](C)C3CC3)cnn12 [III-157] — 1.7-fold higher, 2.9 µg/mL (≈ 7.98 µM)
- Cc1cc(N2CCCC(F)(F)C2)nc2c(C(=O)N[C@@H](C3CC3)C(F)(F)F)cnn12 [III-95] — 1.7-fold lower, 1 µg/mL (≈ 2.4 µM)
- Cc1cc(-c2ccc3c(c2)ncn3C)nc2c(C(=O)NC(C3CC3)C(F)(F)F)cnn12 (centres unmarked) [III-303] — 1.9-fold higher, 3.2 µg/mL (≈ 7.47 µM)
- Cc1cc(-c2cncc(F)c2)nc2c(C(=O)N[C@H](C3CC3)C(F)(F)F)cnn12 [III-126] — within 1.5-fold, 1.8 µg/mL (≈ 4.58 µM)
- Cc1cc(-c2cncc(Cl)c2)nc2c(C(=O)NC(C)(C)C3CC3)cnn12 [III-292] — 5.7-fold lower, 0.3 µg/mL (≈ 0.811 µM)
- Cc1cc(NC2CC2)nc2c(C(=O)N[C@@H](C)C3CC3)cnn12 [III-166] — 6.4-fold higher, 10.9 µg/mL (≈ 36.4 µM)
- Cc1cc(-c2cccc3ncoc23)nc2c(C(=O)NC(C)(C)C3CC3)cnn12 [III-223] — 8.5-fold lower, 0.2 µg/mL (≈ 0.533 µM)
- Cc1cc(N2CCC(F)(F)C2)nc2c(C(=O)NC(C)C(F)(F)F)cnn12 (centres unmarked) [III-180] — 2.8-fold higher, 4.8 µg/mL (≈ 12.7 µM)
- Cc1cc(-c2cccc(-c3ncon3)c2)nc2c(C(=O)NC(C3CC3)C(F)(F)F)cnn12 (centres unmarked) [III-176] — 8.5-fold lower, 0.2 µg/mL (≈ 0.452 µM)
- Cc1cc(N2C[C@H](c3ccccc3)OC2=O)nc2c(C(=O)NC(C3CC3)C(F)(F)F)cnn12 (some centres unmarked) [III-314] — 8.5-fold lower, 0.2 µg/mL (≈ 0.435 µM)
- Cc1cc(-c2nc3ccccc3[nH]2)nc2c(C(=O)NC(C3CC3)C(F)(F)F)cnn12 (centres unmarked) [III-311] — 2.8-fold lower, 0.6 µg/mL (≈ 1.45 µM)
- CCc1cc(N2CCN(C(C)C)C2=O)nc2c(C(=O)NC(C3CC3)C(F)(F)F)cnn12 (centres unmarked) [III-224] — within 1.5-fold, 1.2 µg/mL (≈ 2.74 µM)
- Cc1cc(-c2cccc(Cl)n2)nc2c(C(=O)N[C@@H](C)C(F)(F)F)cnn12 [III-236] — 3.5-fold higher, 5.9 µg/mL (≈ 15.4 µM)
- Cc1cc(-c2ccccc2C#N)nc2c(C(=O)N[C@H](C)C(F)(F)F)cnn12 [III-212] — 2.4-fold lower, 0.7 µg/mL (≈ 1.87 µM)
- Cc1cc(-c2cccc(Cl)n2)nc2c(C(=O)NC(C)C(F)(F)F)cnn12 (centres unmarked) [III-234] — 8.5-fold lower, 0.2 µg/mL (≈ 0.521 µM)
- Cc1cc(C)n2ncc(C(=O)NC(C)(C)C3CC3)c2n1 [III-2] — 16-fold higher, 27.4 µg/mL (≈ 101 µM)
- COc1cc(C#N)cc(-c2cc(C)n3ncc(C(=O)N[C@@H](C)C4CC4)c3n2)c1 [III-129] — 85-fold lower, 0.02 µg/mL (≈ 0.0533 µM)
- Cc1nc2cc(-c3cc(C)n4ncc(C(=O)N[C@@H](C)C5CC5)c4n3)ccc2o1 [III-321] — within 1.5-fold, 1.9 µg/mL (≈ 5.06 µM)
- Cc1cc(-c2ccc(F)c(C#N)c2)nc2c(C(=O)NC(C)C(F)(F)F)cnn12 (centres unmarked) [III-159] — 2.2-fold higher, 3.8 µg/mL (≈ 9.71 µM)
- Cc1cc(-c2ccc3scnc3c2)nc2c(C(=O)NC(C)C(F)(F)F)cnn12 (centres unmarked) [III-220] — 17-fold lower, 0.1 µg/mL (≈ 0.247 µM)
- Cc1cc(N2CCOCC2)nc2c(C(=O)NC(C)(C)C3CC3)cnn12 [III-59] — 6.1-fold higher, 10.3 µg/mL (≈ 30 µM)
- COc1c(C#N)cccc1-c1cc(C)n2ncc(C(=O)N[C@@H](C)C3CC3)c2n1 [III-143] — 10-fold higher, 17.4 µg/mL (≈ 46.3 µM)
- CCOc1cccc(-c2cc(C)n3ncc(C(=O)NC(C)C(F)(F)F)c3n2)c1 (centres unmarked) [III-76] — 8.5-fold lower, 0.2 µg/mL (≈ 0.51 µM)
- Cc1cc(-c2cccc(OC3CC3)c2)nc2c(C(=O)NC(C)C(F)(F)F)cnn12 (centres unmarked) [III-77] — 5.7-fold lower, 0.3 µg/mL (≈ 0.742 µM)
- Cc1cc(C)n2ncc(C(=O)N[C@@H](C3CC3)C(F)(F)F)c2n1 [III-11] — 7.9-fold higher, 13.4 µg/mL (≈ 42.9 µM)
- Cc1cc(-c2cccc(F)c2C#N)nc2c(C(=O)N[C@@H](C)C(F)(F)F)cnn12 [III-399] — 17-fold lower, 0.1 µg/mL (≈ 0.256 µM)
